Results on two compounds are retold here after PMC6376162, “HEXIM1 Peptide Exhibits Antimicrobial Activity Against Antibiotic Resistant Bacteria Through Guidance of Cell Penetrating Peptide” (Frontiers in Microbiology, 2019).

For data set [1], the system named is S. aureus 43300. It counts as cell-based, Staphylococcus aureus. As to conditions: 43300, 20 h. Here is the method:
(§1) Bacterial strains were either purchased from American Type Culture Collection (ATCC, United States) or provided by National University Hospital, Singapore. Prior to assays, all bacteria, except for Enterococcus faecalis, were grown overnight to stationary phase at 37°C in Luria Bertani (LB) broth (Novagen, Germany). The overnight cultures were 10-fold diluted in fresh cation-adjusted Mueller Hinton II broth (MHBII) (Becton Dickinson, United States) and grown for additional few hours at 37°C to obtain mid-log phase culture. E. faecalis strains were grown in M17 broth (Becton Dickenson, United States) for both overnight and mid-log phase culturing. Human keratinocyte cell line, HaCaT, was purchased from Creative Bioarray (United States) and cultured in Dulbecco’s Modified Eagle’s medium with 4.5 g/L glucose, 2 mM L-glutamine, and 10% fetal bovine serum.
(§2) Minimum inhibition concentrations (MICs) were determined by using broth microdilution method in a 96-well microtiter plate according to guidelines of the Clinical and Laboratory Standards Institute ([CLSI, 2012]). Briefly, mid-log phase cultures were diluted with MHBII and added to wells containing serially diluted peptides to give final cell concentration of 5 × 10^5 cells ml^−1. Peptides were prepared in twofold serial dilution series to give a final concentration range from 2 to 128 μM. Cecropin P1 (CECP1) and Cap11-1-18m^2 (CapM2) treated cells were used as positive controls, while untreated cells were used as a negative control.
(§3) To further assess the potency of peptides, wells with no visible growth from MIC tests were subsequently plated on LB agar plates and incubated overnight at 37°C. […] Both MIC and MBC assays were conducted on three to five separate occasions and if results were within one doubling dilutions of each other, the highest reading was recorded for analysis.

Data set [2] deals with P. aeruginosa 544. In kind it is cell-based, Pseudomonas aeruginosa. As to conditions: 544, 20 h. The method, then: as §1, §2, §3
The subject of data set [3] is E. faecalis VRE. In kind it is cell-based, Enterococcus faecalis. Particulars: 20 h. Here is the method:
as §1, §2, §3

For data set [4], the system named is mammalian cells. More on the design: method as in Neo et al., 2016. As to conditions: cited from earlier work.
The test system of data set [5] is Escherichia coli 25922. It counts as cell-based. As to conditions: 25922, 20 h. Here is the method:
as §1, §2, §3

The subject of data set [6] is Pseudomonas aeruginosa 27853. In kind it is cell-based. Particulars: 27853, 20 h. Here is the method: as §1, §2, §3
Data set [7] relates to Enterococcus faecalis SEN. In kind it is cell-based. As to conditions: 20 h. Here is the method:
as §1, §2, §3

The subject of data set [8] is Escherichia coli BAA2523. In kind it is cell-based. Particulars: BAA2523, 20 h. Here is the method:
as §1, §2, §3

For data set [9], the system named is Staphylococcus aureus 29213. It counts as cell-based. Particulars: 29213, 20 h. The method, then:
as §1, §2, §3

Data set [10] has as its system bacterial translation (E. coli lysate). The data set is described as follows: In vitro protein synthesis assay (RTS 100 E. coli HY Kit, GFP, Western blot). It counts as biochemical, Escherichia coli. Particulars: 10 μM streptomycin, RTS with 5 μg GFP mRNA, 30°C, 6 h; positive control. The method, then: The method to study the effect of peptide treatment on in vitro expression of protein was adapted from previous study ([Taniguchi et al., 2016]). RTS^TM 100 E. coli HY Kit (biotechrabbit) was used as a cell-free rapid translation system (RTS) to express green fluorescent protein (GFP) with or without peptide treatment. Streptomycin (Sigma-Aldrich), an antibiotic functioning as an inhibitor of bacterial translation, was used as a positive control. Reaction mixture was prepared as described in the product manual. For the negative control, the remaining 10 μl was topped up with nuclease-free water while for the other reactions, the 10 μl consists of 5 μg GFP mRNA and either nuclease-free water or the indicated treatment (100 μM Pen, Pen-BR, Pen-RRR, CapM2 or 10 μM Streptomycin). Reaction was incubated at 30°C for 6 h before being analyzed with Western blot for the protein level of GFP. To obtain GFP mRNA, control GFP expression vector was first linearized using ApaLI restriction enzyme (New England Biolabs) and then separated via agarose gel electrophoresis. Fragment containing the linearized GFP expression vector was retrieved using FavorPrep GEL Purification Kit (FAVORGEN Biotech Corp.) and subsequently used as the template for MEGAscript^TM T7 Transcription Kit (Thermo Fisher Scientific) to generate GFP mRNA. […]
A general note: A western blot detects proteins with antibodies after separation by electrophoresis.

The term MBC denotes the smallest concentration meeting the test's criterion for killing. For orientation: MIC means the lowest concentration that inhibits growth of the organism. Read a low MIC as inhibition by little substance.

Molecules are shown by their SMILES. In brackets after ≈: the same amount, converted by molar mass. Residues, ends and D or L forms follow the SMILES beside them. A value given as a limit tells only on which side of the number the result lay.

Take `CC(C)C[C@H](NC(=O)[C@@H](N)CCC(N)=O)C(=O)NCC(=O)N[C@@H](CCCCN)C(=O)N[C@@H](CCCCN)C(=O)N[C@@H](CCCCN)C(=O)N[C@@H](Cc1c[nH]cn1)C(=O)N[C@@H](CCCNC(=N)N)C(=O)N[C@@H](CCCNC(=N)N)C(=O)N[C@@H](CCCNC(=N)N)C(=O)N1CCC[C@H]1C(=O)N[C@@H](CO)C(=O)N[C@@H](CCCCN)C(=O)N[C@@H](CCCCN)C(=O)N[C@@H](CCCCN)C(=O)N[C@@H](CCCNC(=N)N)C(=O)N[C@@H](Cc1c[nH]cn1)C(=O)N[C@@H](Cc1c[nH]c2ccccc12)C(=O)O` [BR] (H-QLGKKKHRRRPSKKKRHW-OH): the MBC in data set [1], in [2], in data set [3], in [5], in data set [6] and in data set [7] was above 128 µM throughout. The MBC in data set [8] and in [9] was above 128 µM each time. Besides, the MIC in data set [2], in data set [3], in [5], in [6], in data set [7] and in data set [8] was above 128 µM throughout. In addition, the MIC in data set [9] is 128 µM (≈ 301 µg/mL). In data set [4], the “cytotoxic effects on mammalian cells” value is given as “failed to cause any detectable cytotoxic effects”.

On to `[H]/N=C(/N)N[C@H]1[C@H](O)[C@@H](O)[C@H](O[C@@H]2O[C@@H](C)[C@](O)(C=O)[C@H]2O[C@@H]2O[C@@H](CO)[C@H](O)[C@@H](O)[C@@H]2NC)[C@@H](N/C(N)=N\[H])[C@@H]1O` [streptomycin, Streptomycin], for which the “synthesis of GFP protein (Western blot)” value in data set [10] was “significant inhibition”.
